ChEMBL document CHEMBL5550106, “Recent advances in the exploration of oxazolidinone scaffolds from compound development to antibacterial agents and other bioactivities” (Eur J Med Chem, 2024)
≈ marks a conversion by molar mass, not a printed value.

How the values were obtained:
Escherichia coli [1] = test: Antimicrobial activity against wild type Escherichia coli MG1655 assessed as inhibition of microbial growth; type: functional
Escherichia coli [2] = test: Antibacterial activity against efflux pump-efficient Escherichia coli MG1655 assessed as bacterial growth inhibition; type: functional
Escherichia coli [3] = test: Antibacterial activity against Escherichia coli MG1655 in presence of polymyxin B nonapeptide; type: functional
Staphylococcus aureus = test: Antibacterial activity against Staphylococcus aureus assessed as reduction in bacterial growth incubated for 24 hrs by broth microdilution method; type: functional
MGC-803 = test: Antiproliferative activity against human MGC-803 cells assessed as reduction in cell growth by MTT assay; type: functional, cell-based
SK-OV-3 = test: Antiproliferative activity against human SK-OV-3 cells assessed as reduction in cell viability incubated for 24 hrs by CCK8 assay; type: functional, cell-based; settings: SK-OV-3, 24 h
NCI-H460 = test: Antiproliferative activity against human NCI-H460 cells assessed as inhibition of cell growth by MTT assay; type: functional, cell-based
L02 = test: Antiproliferative activity against human L02 cells assessed as inhibition of cell growth incubated for 24 hrs by MTT assay; type: functional, cell-based; settings: L02, 24 h

| Compound | MIC (Escherichia coli [1]) [µg/mL] | MIC (Escherichia coli [2]) [µg/mL] | MIC (Escherichia coli [3]) [µg/mL] | MIC (Staphylococcus aureus) [µg/mL] | IC50 (MGC-803) [µM] | IC50 (SK-OV-3) [µM] | IC50 (NCI-H460) [µM] | IC50 (L02) [µM] |
| --- | --- | --- | --- | --- | --- | --- | --- | --- |
| NCc1ccc(-c2ccc(N3C[C@H](CO)OC3=O)cc2F)cc1O | 84 | 8 (≈ 24.1 µM) | 32 | 2.8 (≈ 8.43 µM) | – | – | – | – |
| O=C1O[C@@H](CO)CN1c1ccc(-c2ccc([N+](=O)[O-])c(O)c2)c(F)c1 | 64 | 64 (≈ 184 µM) | 64 | 0.5 (≈ 1.44 µM) | – | – | – | – |
| O=C1O[C@@H](CO)CN1c1ccc(-c2ccccc2)c(F)c1 | > 64 | 16 (≈ 55.7 µM) | 16 | 1 (≈ 3.48 µM) | – | – | – | – |
| Cc1ccccc1NCC(O)COC(=O)[C@]1(C)CCC[C@]2(C)c3ccc(C(C)C)cc3CCC12 (stereo not given in full) | – | – | – | – | 7.1 | ≥ 14.9 | ≥ 15.6 | ≥ 28.3 |
| CC(C)c1ccc2c(c1)CCC1[C@](C)(C(=O)OCC(O)CNc3ccc(Br)cc3)CCC[C@]21C (stereo not given in full) | – | – | – | – | 7.1 | ≥ 14.9 | ≥ 15.6 | ≥ 28.3 |
| CC(C)c1ccc2c(c1)CCC1[C@](C)(C(=O)OCC(O)CNc3cccc(Cl)c3)CCC[C@]21C (stereo not given in full) | – | – | – | – | 7.1 | ≥ 14.9 | ≥ 15.6 | ≥ 28.3 |
| CC(C)c1ccc2c(c1)CCC1[C@](C)(C(=O)OCC3CN(c4ccccc4F)C(=O)O3)CCC[C@]21C (stereo not given in full) | – | – | – | – | 3.82 | ≥ 4.1 | ≥ 4.3 | ≥ 26.4 |
| C#Cc1cccc(NCC(O)COC(=O)[C@]2(C)CCC[C@]3(C)c4ccc(C(C)C)cc4CCC23)c1 (stereo not given in full) | – | – | – | – | 7.1 | ≥ 14.9 | ≥ 15.6 | ≥ 28.3 |
| COc1cccc(N2CC(COC(=O)[C@]3(C)CCC[C@]4(C)c5ccc(C(C)C)cc5CCC34)OC2=O)c1 (stereo not given in full) | – | – | – | – | 3.82 | ≥ 4.1 | ≥ 4.3 | ≥ 26.4 |
| CC(C)c1ccc2c(c1)CCC1[C@](C)(C(=O)OCC3CN(c4ccc(Cl)cc4)C(=O)O3)CCC[C@]21C (stereo not given in full) | – | – | – | – | 3.82 | ≥ 4.1 | ≥ 4.3 | ≥ 26.4 |
| COc1ccccc1N1CC(COC(=O)[C@]2(C)CCC[C@]3(C)c4ccc(C(C)C)cc4CCC23)OC1=O (stereo not given in full) | – | – | – | – | 3.82 | ≥ 4.1 | ≥ 4.3 | ≥ 26.4 |
| O=Cc1ccc(-c2ccc(N3C[C@H](CO)OC3=O)cc2F)cc1O | 128 | 16 (≈ 48.3 µM) | 8 | < 0.5 | – | – | – | – |
| Cc1ccc(NCC(O)COC(=O)[C@]2(C)CCC[C@]3(C)c4ccc(C(C)C)cc4CCC23)cc1 (stereo not given in full) | – | – | – | – | 7.1 | ≥ 14.9 | ≥ 15.6 | ≥ 28.3 |
| CC(C)c1ccc2c(c1)CCC1[C@](C)(C(=O)OCC3CN(c4cccc(Cl)c4)C(=O)O3)CCC[C@]21C (stereo not given in full) | – | – | – | – | 3.82 | ≥ 4.1 | ≥ 4.3 | ≥ 26.4 |
| CC(C)c1ccc2c(c1)CCC1[C@](C)(C(=O)OCC(O)CNc3ccc(F)cc3)CCC[C@]21C (stereo not given in full) | – | – | – | – | 7.1 | ≥ 14.9 | ≥ 15.6 | ≥ 28.3 |
| CC(C)c1ccc2c(c1)CCC1[C@](C)(C(=O)OCC3CN(c4ccc(F)cc4)C(=O)O3)CCC[C@]21C (stereo not given in full) | – | – | – | – | 3.82 | ≥ 4.1 | ≥ 4.3 | ≥ 26.4 |
| Cc1cccc(N2CC(COC(=O)[C@]3(C)CCC[C@]4(C)c5ccc(C(C)C)cc5CCC34)OC2=O)c1 (stereo not given in full) | – | – | – | – | 3.82 | ≥ 4.1 | ≥ 4.3 | ≥ 26.4 |
| CC(C)c1ccc2c(c1)CCC1[C@](C)(C(=O)OCC3CN(c4ccccc4)C(=O)O3)CCC[C@]21C (stereo not given in full) | – | – | – | – | 3.82 | ≥ 4.1 | ≥ 4.3 | ≥ 26.4 |
| Cc1ccccc1N1CC(COC(=O)[C@]2(C)CCC[C@]3(C)c4ccc(C(C)C)cc4CCC23)OC1=O (stereo not given in full) | – | – | – | – | 3.82 | ≥ 4.1 | ≥ 4.3 | ≥ 26.4 |
| C#Cc1cccc(N2CC(COC(=O)[C@]3(C)CCC[C@]4(C)c5ccc(C(C)C)cc5CCC34)OC2=O)c1 (stereo not given in full) | – | – | – | – | 3.82 | ≥ 4.1 | ≥ 4.3 | ≥ 26.4 |

| Compound | MIC (Escherichia coli [1]) [µg/mL] | MIC (Escherichia coli [2]) [µg/mL] | MIC (Escherichia coli [3]) [µg/mL] | MIC (Staphylococcus aureus) [µg/mL] | IC50 (MGC-803) [µM] | IC50 (SK-OV-3) [µM] | IC50 (NCI-H460) [µM] | IC50 (L02) [µM] |
| --- | --- | --- | --- | --- | --- | --- | --- | --- |
| Nc1cc(-c2ccc(N3C[C@H](CO)OC3=O)cc2F)ccc1O | > 64 | 16 (≈ 50.3 µM) | 64 | 4 (≈ 12.6 µM) | – | – | – | – |
| COc1ccc(N2CC(COC(=O)[C@]3(C)CCC[C@]4(C)c5ccc(C(C)C)cc5CCC34)OC2=O)cc1 (stereo not given in full) | – | – | – | – | 3.82 | ≥ 4.1 | ≥ 4.3 | ≥ 26.4 |
| CC(C)c1ccc2c(c1)CCC1[C@](C)(C(=O)OCC3CN(c4ccc(Br)cc4)C(=O)O3)CCC[C@]21C (stereo not given in full) | – | – | – | – | 3.82 | ≥ 4.1 | ≥ 4.3 | ≥ 26.4 |
| N#Cc1ccc(O)cc1-c1ccc(N2C[C@H](CO)OC2=O)cc1F | > 256 | 64 (≈ 195 µM) | 128 | 32 (≈ 97.5 µM) | – | – | – | – |
| COc1cccc(NCC(O)COC(=O)[C@]2(C)CCC[C@]3(C)c4ccc(C(C)C)cc4CCC23)c1 (stereo not given in full) | – | – | – | – | 7.1 | ≥ 14.9 | ≥ 15.6 | ≥ 28.3 |
| O=C1O[C@@H](CO)CN1c1ccc(-c2cc(O)ccc2F)c(F)c1 | > 256 | 16 (≈ 49.8 µM) | 16 | 2 (≈ 6.23 µM) | – | – | – | – |
| COc1ccccc1NCC(O)COC(=O)[C@]1(C)CCC[C@]2(C)c3ccc(C(C)C)cc3CCC12 (stereo not given in full) | – | – | – | – | 7.1 | ≥ 14.9 | ≥ 15.6 | ≥ 28.3 |
| Cc1ccc(N2CC(COC(=O)[C@]3(C)CCC[C@]4(C)c5ccc(C(C)C)cc5CCC34)OC2=O)cc1 (stereo not given in full) | – | – | – | – | 3.82 | ≥ 4.1 | ≥ 4.3 | ≥ 26.4 |
| O=C1O[C@@H](CO)CN1c1ccc(-c2cccc(O)c2F)c(F)c1 | > 256 | 32 (≈ 99.6 µM) | 32 | 2 (≈ 6.23 µM) | – | – | – | – |
| Cc1cccc(NCC(O)COC(=O)[C@]2(C)CCC[C@]3(C)c4ccc(C(C)C)cc4CCC23)c1 (stereo not given in full) | – | – | – | – | 7.1 | ≥ 14.9 | ≥ 15.6 | ≥ 28.3 |
| Nc1ccc(-c2ccc(N3C[C@H](CO)OC3=O)cc2F)cc1O | > 64 | 32 (≈ 101 µM) | 32 | 4 (≈ 12.6 µM) | – | – | – | – |
| COc1ccc(NCC(O)COC(=O)[C@]2(C)CCC[C@]3(C)c4ccc(C(C)C)cc4CCC23)cc1 (stereo not given in full) | – | – | – | – | 7.1 | ≥ 14.9 | ≥ 15.6 | ≥ 28.3 |
| CC(C)c1ccc2c(c1)CCC1[C@](C)(C(=O)OCC(O)CNc3cccc(F)c3)CCC[C@]21C (stereo not given in full) | – | – | – | – | 7.1 | ≥ 14.9 | ≥ 15.6 | ≥ 28.3 |
| CC(C)c1ccc2c(c1)CCC1[C@](C)(C(=O)OCC(O)CNc3ccccc3)CCC[C@]21C (stereo not given in full) | – | – | – | – | 7.1 | ≥ 14.9 | ≥ 15.6 | ≥ 28.3 |
| CC(C)c1ccc2c(c1)CCC1[C@](C)(C(=O)OCC(O)CNc3ccccc3F)CCC[C@]21C (stereo not given in full) | – | – | – | – | 7.1 | ≥ 14.9 | ≥ 15.6 | ≥ 28.3 |
| CC(C)c1ccc2c(c1)CCC1[C@](C)(C(=O)OCC(O)CNc3cccc(Br)c3)CCC[C@]21C (stereo not given in full) | – | – | – | – | 7.1 | ≥ 14.9 | ≥ 15.6 | ≥ 28.3 |
| CC(C)c1ccc2c(c1)CCC1[C@](C)(C(=O)OCC(O)CNc3ccc(Cl)cc3)CCC[C@]21C (stereo not given in full) | – | – | – | – | 7.1 | ≥ 14.9 | ≥ 15.6 | ≥ 28.3 |
| CC(C)c1ccc2c(c1)CCC1[C@](C)(C(=O)OCC3CN(c4cccc(F)c4)C(=O)O3)CCC[C@]21C (stereo not given in full) | – | – | – | – | 3.82 | ≥ 4.1 | ≥ 4.3 | ≥ 26.4 |
| O=C1O[C@@H](CO)CN1c1ccc(-c2ccc(F)c(O)c2)c(F)c1 | > 64 | 16 (≈ 49.8 µM) | 16 | 2 (≈ 6.23 µM) | – | – | – | – |
| CC(C)c1ccc2c(c1)CCC1[C@](C)(C(=O)OCC3CN(c4cccc(Br)c4)C(=O)O3)CCC[C@]21C (stereo not given in full) | – | – | – | – | 3.82 | ≥ 4.1 | ≥ 4.3 | ≥ 26.4 |
